In ChEMBL document CHEMBL3860046, “Increasing metabolic stability via the deuterium kinetic isotope effect: An example from a proline-amide-urea aminothiazole series of phosphatidylinositol-3 kinase alpha inhibitors” (Bioorg Med Chem Lett, 2016):
Calls of active or inactive are those of the source. The rule behind the calls is not given here.

Key:
[1] = Stability in rat liver microsomes assessed as compound remaining at 5 uM measured immediately after compound addition in presence of alamethicin,uridine 5'-diphospho-glucuronic acid,glutathione,NADPH by capillary-HPLC/MS analysis (reference value: 96.3 %); format: ADME; details: read-out: Stability
[2] = Stability in rat liver microsomes assessed as compound remaining at 5 uM measured after 1 hr in presence of alamethicin,uridine 5'-diphospho-glucuronic acid,glutathione,NADPH by capillary-HPLC/MS analysis (reference value: 96.3 %); format: ADME; details: read-out: Stability
[3] = Stability in human liver microsomes assessed as compound remaining at 5 uM measured after 1 hr in presence of alamethicin,uridine 5'-diphospho-glucuronic acid,glutathione,NADPH by capillary-HPLC/MS analysis (reference value: 96.3 %); format: ADME; details: read-out: Stability
[4] = Intrinsic clearance in mouse liver microsomes at 1 uM after 5 to 30 mins in presence of NADPH by LC-MS/MS analysis; format: ADME; details: read-out: CLH
[5] = Intrinsic clearance in rat liver microsomes at 1 uM after 5 to 30 mins in presence of NADPH by LC-MS/MS analysis; format: ADME; details: read-out: CLH
[6] = Intrinsic clearance in human liver microsomes at 1 uM after 5 to 30 mins in presence of NADPH by LC-MS/MS analysis; format: ADME; details: read-out: CLH
[7] = Volume of distribution at steady state in Sprague-Dawley rat at 1 mg/kg, iv or 3 mg/kg, po administered in cassette mode measured up to 48 hrs; format: ADME, organism-based; details: in vivo, read-out: Vdss
[8] = Terminal half life in Sprague-Dawley rat at 3 mg/kg, po administered in cassette mode; format: ADME, organism-based; details: in vivo, read-out: beta t1/2 (converted)
[9] = Dose normalized AUC in Sprague-Dawley rat at 1 mg/kg, iv administered in cassette mode measured up to 48 hrs; format: ADME, organism-based; details: in vivo
[10] = Dose normalized AUC in Sprague-Dawley rat at 3 mg/kg, po administered in cassette mode measured up to 48 hrs; format: ADME, organism-based; details: in vivo
[11] = Oral bioavailability in Sprague-Dawley rat at 3 mg/kg administered in cassette mode measured up to 48 hrs; format: ADME, organism-based; details: in vivo
[12] = Dose normalized Cmax in Sprague-Dawley rat at 1 mg/kg, iv or 3 mg/kg, po administered in cassette mode; format: ADME, organism-based; details: in vivo
[13] = Tmax in Sprague-Dawley rat at 1 mg/kg, iv or 3 mg/kg, po administered in cassette mode; format: ADME, organism-based; details: in vivo
[14] = Stability in Sprague-Dawley rat blood assessed as compound remaining at 1 mg/kg, iv administered in cassette mode measured after 0.5 hrs by capillary-HPLC/MS analysis; format: ADME, organism-based; details: whole blood, read-out: Stability
[15] = Stability in Sprague-Dawley rat blood assessed as compound remaining at 1 mg/kg, iv administered in cassette mode measured after 1 hr by capillary-HPLC/MS analysis; format: ADME, organism-based; details: whole blood, read-out: Stability
[16] = Stability in Sprague-Dawley rat blood assessed as compound remaining at 3 mg/kg, po administered in cassette mode measured after 0.5 hrs by capillary-HPLC/MS analysis; format: ADME, organism-based; details: whole blood, read-out: Stability
[17] = Stability in Sprague-Dawley rat blood assessed as compound remaining at 3 mg/kg, po administered in cassette mode measured after 1 hr by capillary-HPLC/MS analysis; format: ADME, organism-based; details: whole blood, read-out: Stability
[18] = AUC (0 to 24 hrs) in Harlan nude mouse plasma xenografted with Rat1 cells expressing myr-p110alpha at 50 mg/kg, po qd administered for 8 days measured post last dose; format: ADME, organism-based; set-up: time < 24 hr, dose 50 mg/kg, route oral
[19] = AUC (0 to 24 hrs) in Harlan nude mouse plasma xenografted with Rat1 cells expressing myr-p110alpha at 100 mg/kg, po qd administered for 8 days measured post last dose; format: ADME, organism-based; set-up: dose 100 mg/kg, time < 24 hr, route oral
[20] = AUC (0 to 24 hrs) in Harlan nude mouse plasma xenografted with Rat1 cells expressing myr-p110alpha at 150 mg/kg, po qd administered for 8 days measured post last dose; format: ADME, organism-based; set-up: time < 24 hr, dose 150 mg/kg, route oral
[21] = Antitumor activity in Rat1 cells expressing myr-p110alpha xenografted in Harlan nude mouse assessed as tumor regression at 100 mg/kg, po qd administered for 8 days measured post last dose; format: functional, Rattus norvegicus
[22] = Antitumor activity in Rat1 cells expressing myr-p110alpha xenografted in Harlan nude mouse assessed as tumor regression at 150 mg/kg, po qd administered for 8 days measured post last dose; format: functional, Rattus norvegicus
Mus musculus [23] = species: Mus musculus; details: Harlan, Rat1, 50 mg/kg
Mus musculus [24] = species: Mus musculus; details: Harlan, Rat1, 50 mg/kg; remark: listed apart in the source
[25] = Drug level in rat hepatocytes treated with 1 uM (2S)-N1-[4-methyl-5-[2-[2,2,2-trideuterio-1,1-bis(trideuteriomethyl)ethyl]pyrimidin-4-yl]thiazol-2-yl]pyrrolidine-1,2-dicarboxamide measured after 40 to 60 mins by capillary-HPLC/MS analysis; format: ADME, cell-based, Hepatocyte
[26] = Drug level in human hepatocytes treated with 1 uM (2S)-N1-[4-methyl-5-[2-[2,2,2-trideuterio-1,1-bis(trideuteriomethyl)ethyl]pyrimidin-4-yl]thiazol-2-yl]pyrrolidine-1,2-dicarboxamide measured after 40 to 60 mins by capillary-HPLC/MS analysis; format: ADME, cell-based, Hepatocyte
[27] = (§1) Drug level in rat liver microsomes treated with (S)-N1-(5-(2-tert-butylpyrimidin-4-yl)-4-methylthiazol-2-yl)pyrrolidine-1,2-dicarboxamide at 5 uM measured after 1 hr in presence of alamethicin,uridine 5'-diphospho-glucuronic acid,glutathione,NADPH by capillary-HPLC/MS analysis; format: ADME
[28] = Drug level in human liver microsomes treated with (S)-N1-(5-(2-tert-butylpyrimidin-4-yl)-4-methylthiazol-2-yl)pyrrolidine-1,2-dicarboxamide at 5 uM measured after 1 hr in presence of alamethicin,uridine 5'-diphospho-glucuronic acid,glutathione,NADPH by capillary-HPLC/MS analysis; format: ADME
[29] = as §1, with “measured immediately” for “measured”, “compound addition” for “1 hr”; format: ADME
[30] = Stability in rat hepatocytes assessed as compound remaining at 1 uM measured after 40 to 60 mins by capillary-HPLC/MS analysis; format: ADME, cell-based, Hepatocyte; details: read-out: Stability
[31] = Stability in human hepatocytes assessed as compound remaining at 1 uM measured after 40 to 60 mins by capillary-HPLC/MS analysis; format: ADME, cell-based, Hepatocyte; details: read-out: Stability
[32] = Clearance in Sprague-Dawley rat at 1 mg/kg, iv administered in cassette mode measured up to 48 hrs; format: ADME, organism-based; details: in vivo
[33] = Antitumor activity in Rat1 cells expressing myr-p110alpha xenografted in Harlan nude mouse assessed as tumor regression at 25 mg/kg, po qd administered for 8 days measured post last dose; format: functional, Rattus norvegicus
[34] = Antitumor activity in Rat1 cells expressing myr-p110alpha xenografted in Harlan nude mouse assessed as tumor regression at 50 mg/kg, po qd administered for 8 days measured post last dose; format: functional, Rattus norvegicus

| SMILES | microsomal CLint at 1 µM [4] | microsomal CLint at 1 µM [5] | microsomal CLint at 1 µM [6] | Vd [7] | half-life [8] | AUC/dose [9] | AUC/dose [10] | bioavailability [11] | Cmax/dose [12] | Tmax [13] | remaining at 0.5 h [14] | remaining at 1 h [15] | remaining at 0.5 h [16] | remaining at 1 h [17] | Drug metabolism [25] | Drug metabolism [26] | Drug metabolism [27] | Drug metabolism [28] | also measured |
| --- | --- | --- | --- | --- | --- | --- | --- | --- | --- | --- | --- | --- | --- | --- | --- | --- | --- | --- | --- |
| Cc1nc(NC(=O)N2CCC[C@H]2C(N)=O)sc1-c1ccnc(C(C)(C)C)n1 | 35 µL/min/mg | 55 µL/min/mg | 32 µL/min/mg | 1.2 L/kg | 72 min | 2010 nM·kg·h/mg | 527 nM·kg·h/mg | 26% | 180 nM | 18 min | 90% | 86% | 74% | 73% |  |  |  |  | remaining at 0 min, 5 µM [1]: 98.9%; remaining at 1 h, 5 µM [2]: 87.2%; remaining at 1 h, 5 µM [3]: 90.8%; AUC at 24 h [18]: 65 µM·h; AUC at 24 h [19]: 134 µM·h; AUC at 24 h [20]: 383 µM·h; Activity [21]: 10%; Activity [22]: 51%; inhibition (Mus musculus [23]): Active; inhibition (Mus musculus [24]): Active |
| [2H]C([2H])([2H])C(c1nccc(-c2sc(NC(=O)N3CCC[C@H]3C(=O)O)nc2C)n1)(C([2H])([2H])[2H])C([2H])([2H])[2H] |  |  |  |  |  |  |  |  |  |  |  |  |  |  | Metabolite_Detected | Metabolite_Detected |  |  |  |
| Cc1nc(NC(=O)N2CCC[C@H]2C(N)=O)sc1-c1ccnc(C(C)(C)CO)n1 |  |  |  |  |  |  |  |  |  |  |  |  |  |  |  |  | Metabolite_Detected | Metabolite_Detected |  |
| Cc1nc(NC(=O)N2CCC[C@H]2C(=O)O)sc1-c1ccnc(C(C)(C)C)n1 |  |  |  |  |  |  |  |  |  |  |  |  |  |  |  |  | Metabolite_Detected | Metabolite_Detected | Drug metabolism [29]: Metabolite_Detected |
| [2H]C([2H])([2H])C(c1nccc(-c2sc(NC(=O)N3CCC[C@H]3C(N)=O)nc2C)n1)(C([2H])([2H])[2H])C([2H])([2H])[2H] | 19 µL/min/mg | 22 µL/min/mg | 19 µL/min/mg | 1.4 L/kg | 90 min | 2750 nM·kg·h/mg | 1490 nM·kg·h/mg | 54% | 270 nM | 18 min | 95% | 95% | 91% | 91% |  |  |  |  | remaining at 1 µM [30]: 94.5%; remaining at 1 µM [31]: 96.2%; clearance [32]: 16 mL/min/kg; Activity [33]: 24%; Activity [34]: 63% |
| [2H]C([2H])([2H])C(c1nccc(-c2sc(NC(=O)N3CCC[C@H]3C(N)=O)nc2C)n1)(C([2H])([2H])[2H])C([2H])([2H])O |  |  |  |  |  |  |  |  |  |  |  |  |  |  | Metabolite_Detected | Metabolite_Detected |  |  |  |
